# In patent US12448378B2, “Fluoropyrrolopyridine compound and application thereof” (Wuxi Life Fountain Biotech Co., Ltd, priority 2020, dated 2025):
# Tests used:
# [1] = target: human ATR kinase (ATR/ATRIP (h)) (Homo sapiens (Human), UniProt Q13535); test: ATR enzyme activity in vitro (HTRF kinase assay); format: biochemical; conditions: 10 μM ATP, GST-cMyc-p53 substrate
# Description: The inhibitory activity of the test compounds against human ATR kinase was evaluated by measuring IC50 value.
# ATR/ATRIP (h) was incubated in detection buffer containing 50 nM GST-cMyc-p53 and Mg/ATP (10 μM). The reaction was initiated by adding Mg/ATP mixture. After incubation at room temperature for 30 minutes, the reaction was terminated by adding a termination solution containing EDTA. Finally, a detection buffer containing d^2-labeled anti-GST monoclonal antibody and europium-labeled anti-phospho-Ser15 antibody against phosphorylated p53 were added. Plates were then read in time-resolved fluorescence mode for homogeneous time resolution.
# The fluorescence (HTRF) signal was determined according to the formula HTRF=10000×(Em665 nm/Em620 nm).
# tumor cell line LoVo = test: In vitro LoVo cell proliferation inhibition (CellTiter-Glo); format: cell-based; conditions: Homo sapiens, LoVo cells
# Description: In this experiment, the inhibitory effect of the compounds on cell proliferation was studied by detecting the effect of the compounds on the in vitro cell activity in the tumor cell line LoVo.
# CellTiter-Glo Luminescent Cell Viability Assay
# The following steps were carried out according to the instructions of PromegaCellTiter-Glo luminescent cell viability assay kit (Promega-G7573).
# (1) CellTiter-Glo buffer was thawed and placed at room temperature.
# (2) CellTiter-Glo substrate was placed at room temperature.
# (3) CellTiter-Glo working solution was prepared by adding CellTiter-Glo buffer to a vial of CellTiter-Glo substrate to dissolve the substrate.
# (4) Slowly vortexed to fully dissolve. […]
# (8) The culture plate was left at room temperature for 10 minutes to stabilize the luminescence signal.
# (9) The luminescence signal was detected on the SpectraMax i3x of Molecular Devices plate reader.
# The Inhibition rate (IR) of the test compound was calculated using the following formula: IR (%)=(1−(RLU compound−RLU blank control)/(RLU solvent control−RLU blank control))*100%. The inhibition rates of different concentrations of the compounds were calculated in Excel, and then the inhibition curves were made by GraphPad Prism software and the related parameters were calculated, including the minimum inhibition rate, the maximum inhibition rate and IC50.
# [2] = In vivo pharmacokinetics in female Balb/c Nude mice
# Description: Test sample: On the basis of the above experiments, compound 1 was selected for further experiments.
# Experimental methods: The purpose of this study was to determine the pharmacokinetic parameters of compound 1 and to calculate its oral bioavailability in female Balb/c Nude mice. This project used 4 female Balb/c Nude mice. Two mice were administered intravenously at a dose of 1 mg/kg, and plasma samples were collected at 0 hours (before administration) and 0.0833, 0.25, 0.5, 1, 2, 4, 6, 8, 24 hours after administration. The other two mice were administered orally by gavage at a dose of 10 mg/kg or 25 mg/kg, and plasma samples were collected at 0 hours (before administration) and 0.25, 0.5, 1, 2, 4, 6, 8, 24 hours after administration. The collected samples were then analyzed by LC/MS/MS and data were collected. The collected analysis data were used to calculate the relevant pharmacokinetic parameters by Phoenix WinNonlin 6.2.1 software.
# [3] = test system: human gastric cancer SNU-601 xenograft tumor; test: In vivo efficacy, human gastric cancer cell SNU-601 CDX xenograft model; design: species or system mice; conditions: for tumor volume: day 21, CB17 SCID mice
# Text: The main objective of this study was to study the antitumor efficacy of the test sample on the xenograft tumor model of human gastric cancer cell SNU-601.
# • Species: mice • Strain: CB17 SCID mice • Supplier: Huafukang Laboratory Animal Technology Co., Ltd. • Week age: 6-8 weeks old • Gender: female 2. Cell Culture
# Human gastric cancer SNU-601 cells, sourced from KCLB (Cat. No.: 00601), were maintained and passaged by HD Biosciences (Shanghai) Co., Ltd. In vitro culture conditions were RPMI 1640 culture medium (containing 300 mg/L L-glutamine) with 10% fetal bovine serum, 25 mM HEPES and 25 mM sodium bicarbonate, incubated in 5% CO2 incubator at 37° C., and passaged for two or three times a week. When the number of cells reached the requirement, the cells were collected and counted. 0.2 mL (5×10^6 cells) SNU-601 cells (resuspended in DPBS:Matrigel=1:1) were subcutaneously inoculated into the right back of each mouse, and the group administration was started when the average tumor volume reached 147.61 mm^3.
# Administration dosage: Compound 1 was orally administered at three doses of 15 mg/kg (administered for 3 days without administration for 4 days), 10 mg/kg (administered for 3 days without administration for 4 days) and 5 mg/kg (continuous administration).
# Tumor diameters were measured with vernier calipers three times a week. The tumor volume was calculated by the formula: V=0.5×a×b^2, wherein a and b referred to the long and short diameter of the tumor, respectively. The calculation formula of relative tumor volume (RTV) was: RTV (%)=(Vt/V1)×100; the calculation formula of animal body weight change (BWC) was: BWC (%)=(BWt−BW1)/BW1×100, wherein V1 and BW1 referred to the tumor volume and body weight of a certain animal on the day of group administration, and Vt and BWt referred to the tumor volume and body weight of a certain animal at a certain measurement.
# The antitumor efficacy of the compounds was evaluated by TGI (%) or relative tumor proliferation rate T/C (%). Relative tumor proliferation rate T/C (%)=TRTV/CRTV×100 (TRTV: mean RTV of the treatment group; CRTV: mean RTV of the negative control group). The relative tumor volume (RTV) was calculated according to the results of tumor measurement, and the calculation formula was RTV=Vt/V1, wherein V1 was the tumor volume measured at the time of group administration (that is, D1), Vt was the tumor volume at a certain measurement, and the data of TRTV and CRTV were taken on the same day.
# TGI (%) reflected the tumor growth inhibition rate. TGI (%)=[(1−(average tumor volume at the end of administration of a certain treatment group−average tumor volume at the beginning of administration of this treatment group))/(average tumor volume at the end of treatment in the solvent control group−average tumor volume at the beginning of treatment in the solvent control group)]×100.
# After the experiment, the tumor weight would be detected, and the percentage of Tweight/Cweight would be calculated. Tweight and Cweight referred to the tumor weight of the administration group and the solvent control group, respectively.
# In this experiment, the xenograft tumor model of human gastric cancer cell SNU601 was used to evaluate the in vivo efficacy of the test compounds. During the whole administration period, no animals were discontinued due to body weight loss of more than 10%, and the efficacy test was terminated on the 21st day after administration.
# [4] = mouse, plasma, intravenous 1 mg/kg
# [5] = whole experimental period, compound 1 administration group
# Chain of human ATR kinase (ATR/ATRIP (h)) (Q13535 whole entry): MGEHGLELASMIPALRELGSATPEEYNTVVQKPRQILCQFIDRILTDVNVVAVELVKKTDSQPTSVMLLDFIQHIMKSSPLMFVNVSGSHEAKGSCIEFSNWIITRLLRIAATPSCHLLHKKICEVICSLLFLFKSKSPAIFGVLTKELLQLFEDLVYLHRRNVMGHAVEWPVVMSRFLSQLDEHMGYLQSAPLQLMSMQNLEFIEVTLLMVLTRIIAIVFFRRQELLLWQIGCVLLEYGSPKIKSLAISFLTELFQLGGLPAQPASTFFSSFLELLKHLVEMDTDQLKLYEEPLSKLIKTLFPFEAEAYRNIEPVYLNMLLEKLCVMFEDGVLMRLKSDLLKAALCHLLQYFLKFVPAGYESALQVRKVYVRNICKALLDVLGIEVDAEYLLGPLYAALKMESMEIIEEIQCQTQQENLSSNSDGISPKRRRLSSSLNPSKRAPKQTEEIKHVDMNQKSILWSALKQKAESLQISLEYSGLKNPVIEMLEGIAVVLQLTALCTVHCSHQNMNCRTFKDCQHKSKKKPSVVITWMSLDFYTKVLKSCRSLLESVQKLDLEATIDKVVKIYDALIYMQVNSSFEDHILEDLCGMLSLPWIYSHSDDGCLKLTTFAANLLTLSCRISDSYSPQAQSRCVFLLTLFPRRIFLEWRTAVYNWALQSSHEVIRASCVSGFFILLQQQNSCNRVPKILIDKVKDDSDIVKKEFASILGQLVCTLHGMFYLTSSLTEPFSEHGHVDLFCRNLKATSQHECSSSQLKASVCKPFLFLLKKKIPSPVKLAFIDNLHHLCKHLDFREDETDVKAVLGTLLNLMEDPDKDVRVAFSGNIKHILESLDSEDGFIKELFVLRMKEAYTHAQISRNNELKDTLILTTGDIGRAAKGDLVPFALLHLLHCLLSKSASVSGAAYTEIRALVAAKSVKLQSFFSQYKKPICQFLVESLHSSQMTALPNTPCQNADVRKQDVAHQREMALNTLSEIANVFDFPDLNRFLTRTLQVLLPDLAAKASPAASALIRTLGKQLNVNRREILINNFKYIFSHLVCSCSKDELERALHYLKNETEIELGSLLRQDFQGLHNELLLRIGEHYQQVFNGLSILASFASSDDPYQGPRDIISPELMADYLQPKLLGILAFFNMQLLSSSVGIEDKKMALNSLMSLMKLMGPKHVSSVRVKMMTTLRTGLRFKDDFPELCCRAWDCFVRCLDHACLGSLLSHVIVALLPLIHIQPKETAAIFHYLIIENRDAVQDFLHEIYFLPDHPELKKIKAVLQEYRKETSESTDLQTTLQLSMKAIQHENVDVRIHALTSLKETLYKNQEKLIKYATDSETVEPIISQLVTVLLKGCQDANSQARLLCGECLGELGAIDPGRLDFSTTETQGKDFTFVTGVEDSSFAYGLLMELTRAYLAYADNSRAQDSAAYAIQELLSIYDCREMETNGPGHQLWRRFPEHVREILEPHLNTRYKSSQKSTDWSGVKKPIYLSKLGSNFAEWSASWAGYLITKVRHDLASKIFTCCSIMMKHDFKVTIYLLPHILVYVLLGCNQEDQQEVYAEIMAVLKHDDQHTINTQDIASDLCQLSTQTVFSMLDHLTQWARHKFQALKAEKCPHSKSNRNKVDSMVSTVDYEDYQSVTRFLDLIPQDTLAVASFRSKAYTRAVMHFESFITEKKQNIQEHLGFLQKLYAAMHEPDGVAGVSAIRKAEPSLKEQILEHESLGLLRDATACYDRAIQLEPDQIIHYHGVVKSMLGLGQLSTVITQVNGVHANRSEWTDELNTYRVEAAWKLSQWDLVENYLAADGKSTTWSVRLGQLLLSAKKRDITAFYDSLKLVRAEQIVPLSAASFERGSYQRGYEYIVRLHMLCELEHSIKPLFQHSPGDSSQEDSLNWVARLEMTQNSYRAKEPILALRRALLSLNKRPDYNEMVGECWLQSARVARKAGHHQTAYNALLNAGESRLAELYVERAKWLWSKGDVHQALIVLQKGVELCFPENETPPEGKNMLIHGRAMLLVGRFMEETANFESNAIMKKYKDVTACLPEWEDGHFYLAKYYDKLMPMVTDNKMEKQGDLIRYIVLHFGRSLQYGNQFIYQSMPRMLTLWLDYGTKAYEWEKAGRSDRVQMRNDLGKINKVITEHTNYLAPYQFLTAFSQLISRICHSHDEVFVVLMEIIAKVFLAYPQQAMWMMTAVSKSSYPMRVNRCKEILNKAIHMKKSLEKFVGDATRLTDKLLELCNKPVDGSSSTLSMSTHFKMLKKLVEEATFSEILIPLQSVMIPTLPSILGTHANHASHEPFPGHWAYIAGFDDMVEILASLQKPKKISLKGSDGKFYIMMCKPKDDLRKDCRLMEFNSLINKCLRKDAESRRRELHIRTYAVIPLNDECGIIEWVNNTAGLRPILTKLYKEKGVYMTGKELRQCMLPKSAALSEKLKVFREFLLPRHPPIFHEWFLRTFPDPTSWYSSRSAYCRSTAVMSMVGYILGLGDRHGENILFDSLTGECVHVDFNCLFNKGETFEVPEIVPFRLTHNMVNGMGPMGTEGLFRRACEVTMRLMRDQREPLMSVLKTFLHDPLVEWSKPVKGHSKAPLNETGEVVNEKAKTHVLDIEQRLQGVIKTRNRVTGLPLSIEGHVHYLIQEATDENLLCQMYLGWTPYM
# Chain of human ATR kinase (ATR/ATRIP (h)) (Q8WXE1 whole entry partner): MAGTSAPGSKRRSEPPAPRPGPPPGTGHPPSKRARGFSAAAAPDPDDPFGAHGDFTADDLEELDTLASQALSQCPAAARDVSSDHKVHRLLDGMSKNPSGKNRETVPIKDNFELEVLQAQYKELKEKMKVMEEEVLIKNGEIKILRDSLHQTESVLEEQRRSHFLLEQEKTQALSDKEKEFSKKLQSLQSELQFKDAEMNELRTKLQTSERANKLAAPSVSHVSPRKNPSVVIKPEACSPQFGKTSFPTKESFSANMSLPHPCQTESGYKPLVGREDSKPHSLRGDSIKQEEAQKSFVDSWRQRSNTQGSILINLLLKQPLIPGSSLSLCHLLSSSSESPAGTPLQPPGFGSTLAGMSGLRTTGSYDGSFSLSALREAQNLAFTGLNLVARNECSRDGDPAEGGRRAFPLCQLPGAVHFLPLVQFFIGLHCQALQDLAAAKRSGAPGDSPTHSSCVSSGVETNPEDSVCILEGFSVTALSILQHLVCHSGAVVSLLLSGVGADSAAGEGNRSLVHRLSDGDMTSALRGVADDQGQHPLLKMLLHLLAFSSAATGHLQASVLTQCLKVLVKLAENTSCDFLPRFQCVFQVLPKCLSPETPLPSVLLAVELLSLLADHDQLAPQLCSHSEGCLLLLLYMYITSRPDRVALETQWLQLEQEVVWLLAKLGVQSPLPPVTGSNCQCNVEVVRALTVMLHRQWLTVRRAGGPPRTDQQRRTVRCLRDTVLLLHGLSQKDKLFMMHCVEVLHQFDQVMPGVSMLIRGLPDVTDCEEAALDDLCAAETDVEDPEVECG
smiles,measurement,setting,value
Cc1nnn(C)c1-c1cc(-c2c(F)ncc3[nH]ccc23)nc(N2CCOC[C@H]2C)c1 [Compound 1],IC50,[1],33 nM
same,IC50,tumor cell line LoVo,102 nM
same,C0,"[2]; mouse, intravenous 1 mg/kg, plasma",2.8 µM
same,AUC(0-t),[2]; [4],2.55 µM·h
same,clearance,[2]; [4],15.8 mL/min/kg
same,half-life,[2]; [4],1.32 h
same,Vd,"[2]; mouse, plasma, intravenous 1 mg/kg, read-out: Vdss",1.65 L/kg
same,AUC(0-t),"[2]; mouse, plasma, oral 10 mg/kg",23 µM·h
same,Cmax,"[2]; mouse, plasma, oral 10 mg/kg",9.56 µM
same,half-life,"[2]; mouse, plasma, oral 10 mg/kg",1.4 h
same,AUC(0-t),"[2]; mouse, plasma, oral 25 mg/kg",82 µM·h
same,Cmax,"[2]; mouse, plasma, oral 25 mg/kg",17.4 µM
same,half-life,"[2]; mouse, plasma, oral 25 mg/kg",3.8 h
same,F,[2]; oral 10 mg/kg vs intravenous 1 mg/kg,91.6%
same,tumor volume,[3]; oral 5 mg/kg (continuous administration),229.99±24.42 mm^3
same,tumor inhibition rate TGI,"[3]; oral 5 mg/kg (continuous administration), day 21, p<0.01",88.61%
same,tumor volume,"[3]; oral 10 mg/kg (3 days on, 4 days off)",136.74±14.46 mm^3
same,tumor inhibition rate TGI,"[3]; oral 10 mg/kg (3 days on, 4 days off), day 21, P<0.01",101.08%
same,tumor volume,"[3]; oral 15 mg/kg (3 days on, 4 days off)",108.74±9.67 mm^3
same,tumor inhibition rate TGI,"[3]; oral 15 mg/kg (3 days on, 4 days off), day 21, p<0.01",104.81%
same,animal state,[3]; [5],had no abnormality
same,body weight of the animals,[3]; [5],did not decrease significantly
Cc1nnc(C)n1-c1cc(-c2c(F)ncc3[nH]ccc23)nc(N2CCOC[C@H]2C)c1 [Compound 2],IC50,[1],69 nM
same,IC50,tumor cell line LoVo,234 nM
C[C@@H]1COCCN1c1cc(-c2cccn2C)cc(-c2c(F)ncc3[nH]ccc23)n1 [Compound 5],IC50,[1],336 nM
C[C@@H]1COCCN1c1cc(-c2cnnn2C)cc(-c2c(F)ncc3[nH]ccc23)n1 [Compound 6],IC50,[1],211 nM
Cc1ncccc1-c1cc(-c2c(F)ncc3[nH]ccc23)nc(N2CCOC[C@H]2C)c1 [Compound 7],IC50,[1],78 nM
Cc1ccccc1-c1cc(-c2c(F)ncc3[nH]ccc23)nc(N2CCOC[C@H]2C)c1 [Compound 8],IC50,[1],425 nM
Cc1n[nH]c(C)c1-c1cc(-c2c(F)ncc3[nH]ccc23)nc(N2CCOC[C@H]2C)c1 [Compound 9],IC50,[1],31 nM
COc1cc(C)c(-c2cc(-c3c(F)ncc4[nH]ccc34)nc(N3CCOC[C@H]3C)c2)cn1 [Compound 10],IC50,[1],182 nM
Cc1nn(C)cc1-c1cc(-c2c(F)ncc3[nH]ccc23)nc(N2CCOC[C@H]2C)c1 [Compound 13],IC50,[1],500 nM
Cc1cnn(C)c1-c1cc(-c2c(F)ncc3[nH]ccc23)nc(N2CCOC[C@H]2C)c1 [Compound 14],IC50,[1],57 nM
C[C@@H]1COCCN1c1cc(-c2ccnn2C)cc(-c2c(F)ncc3[nH]ccc23)n1 [Compound 15],IC50,[1],204 nM
Cc1noc(C)c1-c1cc(-c2c(F)ncc3[nH]ccc23)nc(N2CCOC[C@H]2C)c1 [Compound 16],IC50,[1],78 nM
